Source: patent publication US10822376B2, “Biologically active peptides” (Baxalta Incorporated, priority 2008, dated 2020)
Where a SMILES comes first, the peptide text is derived from it. Where no end group is shown, it is not given here. [ ]: non-standard residue; d: D form.

Key:
[1] = tested on: FVIII-inhibited human normal plasma; experiment: Defined Fibrin Deposition Assay (clotting time); assay type: biochemical; settings: for Activity in the Defined Fibrin Deposition Assay: summary
Experimental: Another suitable assay to determine procoagulant activity, and particularly FVIII equivalent activity or FVIII inhibitor bypassing activity, is the Defined Fibrin Deposition Assay as described below. […] This assay is particularly useful for determining coagulation FVIII activity because it is conducted in the presence of FVIII-depleted or inhibited plasma.
The Defined Fibrin Deposition Assay is performed as follows. FVIII activity of human citrated plasma (Baxter AG) is first inhibited by incubating (2 hours, 37° C.) 100 μl of human normal plasma with 25 μl heat inactivated anti-human FVIII plasma (300 BU/ml, 6 hours incubated at 56° C.) raised in goat. For each sample to be tested, 125 μl of this FVIII-inhibited human normal plasma is transferred to a pre-warmed cuvette and a 75 μl dilution of a test compound or FEIBA reference standard (Baxter AG) is added. The dilutions of test compound or FEIBA reference standard contain 50 mM imidazole, 100 mM NaCl and 10 mg/ml human serum albumin (Sigma) pH 7.4. As a trigger and for providing procoagulant surfaces 100 μl of a mix of human factor XIa (3.13 nM, Enzyme Research Laboratories) and phospholipid (PL) vesicles (Phosphatidylcholine/Phosphatidylserine 60%/40%, 30 μM; Avanti Polar Lipids) in 50 mM Imidazole, 100 mM NaCl, 10 mg/ml human serum albumin (Sigma) pH 7.4 is included. After incubating for three minutes at 37° C. the coagulation reaction is started by adding 100 μl of 25 mM CaCl2. Clot formation is monitored by a coagulometer (KC10A, Amelung, Germany). In brief, each cuvette rotates slowly above the magnetic detection device and contains a small magnetic metallic ball. Whilst the plasma components remain in solution, the ball sits at the bottom of the cuvette. Over time, a clot begins to form, such that the ball starts to rotate with the developing clot in the rotating cuvette. The “clotting time” is recorded and is defined as the time from addition of the CaCl2) to the time that the developing clot begins to rotate the metallic ball. A standard curve for FEIBA reference standard dilutions is calculated by linear regression of logarithmic FEIBA concentrations (x-axis) against the clotting time (y-axis). Based on the clotting time of each compound concentration FEIBA equivalent activities are calculated according to this standard curve.
Thus, where a concentration of 100 μM is given, the actual concentration in the final assay volume in 25 μM.
Various peptides were tested for the ability to stimulate fibrin deposition in the Defined Fibrin Deposition Assay as described in the specific description.

HERG channel [2] = target: T1, HERG channel (Homo sapiens, UniProt Q12809); experiment: HERG inhibition, patch clamp assay; settings: patch clamp assay
T1 sequence (Q12809 whole entry): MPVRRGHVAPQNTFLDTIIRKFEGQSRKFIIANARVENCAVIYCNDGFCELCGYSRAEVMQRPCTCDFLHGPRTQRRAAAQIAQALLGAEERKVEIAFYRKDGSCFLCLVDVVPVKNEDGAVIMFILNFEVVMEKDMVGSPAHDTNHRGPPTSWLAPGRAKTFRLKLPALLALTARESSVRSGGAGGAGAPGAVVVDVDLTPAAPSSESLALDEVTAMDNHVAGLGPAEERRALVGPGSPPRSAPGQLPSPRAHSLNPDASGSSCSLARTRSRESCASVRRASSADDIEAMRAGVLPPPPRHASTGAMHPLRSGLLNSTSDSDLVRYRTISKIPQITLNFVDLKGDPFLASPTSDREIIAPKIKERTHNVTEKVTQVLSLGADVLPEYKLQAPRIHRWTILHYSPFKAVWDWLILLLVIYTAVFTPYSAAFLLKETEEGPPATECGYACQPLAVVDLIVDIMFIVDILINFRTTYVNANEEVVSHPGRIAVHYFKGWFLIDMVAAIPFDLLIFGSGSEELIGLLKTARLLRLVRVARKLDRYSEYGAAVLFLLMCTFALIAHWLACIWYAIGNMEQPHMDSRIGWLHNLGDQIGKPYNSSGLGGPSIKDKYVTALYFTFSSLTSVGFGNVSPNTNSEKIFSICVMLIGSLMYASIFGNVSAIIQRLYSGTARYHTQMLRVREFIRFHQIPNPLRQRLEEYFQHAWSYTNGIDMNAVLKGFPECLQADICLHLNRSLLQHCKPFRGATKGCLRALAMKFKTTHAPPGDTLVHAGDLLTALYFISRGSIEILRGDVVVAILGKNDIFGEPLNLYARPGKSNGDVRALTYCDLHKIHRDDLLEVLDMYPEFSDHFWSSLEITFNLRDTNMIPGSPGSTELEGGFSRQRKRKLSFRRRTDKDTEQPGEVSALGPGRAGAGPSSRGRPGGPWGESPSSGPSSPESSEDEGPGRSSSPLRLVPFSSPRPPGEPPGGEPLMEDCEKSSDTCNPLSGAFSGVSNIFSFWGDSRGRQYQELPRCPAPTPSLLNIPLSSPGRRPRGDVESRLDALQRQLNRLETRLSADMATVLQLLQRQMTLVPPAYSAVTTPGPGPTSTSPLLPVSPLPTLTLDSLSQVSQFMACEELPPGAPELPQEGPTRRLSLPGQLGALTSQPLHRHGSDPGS
Experimental: QT prolongation is assessed by HERG inhibition measured by patch-clamp techniques or Rb^+ efflux.
For rigorous characterization of HERG inhibition the patch clamp assay is applied (Cerep, France, Catalog ref. 900-36). […] The test compounds (10 mM stock solutions) were dissolved in dimethylsulfoxide (DMSO). The solutions at 1 μM contained 0.01% DMSO.

HERG channel [3] = target: T1, HERG channel; assay type: cell-based
Experimental: It was tested at 10 μM and the data were compared with historical values determined at Cerep.

C57BI/6 mice = experiment: Acute toxicology in mice; assay type: in vivo, mouse; settings: 60 minutes following administration; for Max dose within toxicity category: Severe toxicity (one of the animals died within one hour) / Max dose within toxicity category: Some toxicity (ataxy or catalepsy, no deaths): i.v.
Experimental: Toxicology studies involved monitoring of attitude changes due to toxic effects immediately after application and twice daily; monitoring of body weight; histopathology of brain, heart, kidney, liver, lung. Experiments were performed in C57131/6 mice.
C57BI/6 mice weighing 18-20 g were administered with compounds in a suitable vehicle i.v. in the tail vein or i.p. or s.c at 10 ml/kg. Quantities of the compounds administered were in the range of 0.075 to 125 mg/kg (i.v.), 15-125 mg/kg (i.p.) and 125 mg/kg (s.c.). There were four mice per group. Attitude changes due to toxic effects were monitored immediately after administration of the compound and for 60 minutes thereafter. Body weight was monitored for five days after administration. At day 5 after administration, mice were culled and autopsy performed. Brain, heart, kidney, liver, lung and spleen were biopsied.
In the above table, the maximum dose tested giving rise to no detected toxicity, some toxicity or severe toxicity over the period of 60 minutes following administration is reported. “No detected toxicity” indicates no acute toxic observations.

in vitro = in vitro ADME; settings: mouse, microsomes, pH 7.4
Experimental: Tests were used to determine the stability of compounds in microsomal preparations of human or animal origin. The microsomal stability is measured either in assays provided by Cerep (France, Catalog ref. 900-8h) or by the protocol described below. […] All wells must be carefully mixed to ensure a homogenous suspension before the next steps. 75 μl samples (duplicates) at t=0 minutes are taken for each compound. The plate is sealed and returned to the water bath/thermomixer for 30 minutes. The test compounds/standards are extracted by addition of 200 μl methanol, also including an internal standard. […] The samples are centrifuged at 1300 g for 10 min at 4° C. 200 μl of the supernatant is transferred into a 96-well plate with 10 μl DMSO per well. Compound stability is measured by HPLC-MS analysis (triplicates). The same procedure is repeated after 30 min. […] The signal to noise ratio for all peaks must be 5:1 or better. The ratio AUCanalyte: AUCstandard at the different timepoints must be used. The calculated stability for the control compound must fall in a certain range to validate the assay.

in vivo = settings: C57BL/6, mouse
Experimental: Pharmacokinetics of compounds were tested in C57BI/6 mice or Wistar rats at 1-30 mg/kg. Compound concentrations in the blood stream were monitored at appropriate intervals using LC-MS.
Pharmacokinetic studies were performed to monitor compound concentrations in plasma following i.v., i.p. or s.c. administration. Studies were conducted in C57BI/6 mice weighing approximately 20 g.
Peptide concentrations in the plasma were analysed by HPLC-MS on a Surveyor HPLC combined with mass spectrometer LCQ classic or Advantage (all Thermo Electron, US) equipped with an ESI-source. All HPLC experiments were carried out on a Phenomenex C-18 Luna column (50 mm×2.0 mm, 5 μl injection volume) using a linear gradient: eluent A 0.05% trifluoracetic acid (TFA) in water; eluent B 0.05% TFA in acetonitrile; flow rate 0.3 mL/min in 10 min. […] The internal standard is prepared as a 0.1 μg/ml solution in 100% methanol. 50 μl plasma and 50 μl internal standard are mixed. 100 μl methanol is added and mixed thoroughly. After 30 min incubation on ice the vial is centrifuged for 15 min at 4° C. […] 150 μl of the supernatant are transferred into the HPLC vial

Row | Compound | FEIBA EU (from clotting time) ([1]; compound 12.5 μM) | FEIBA EU (from clotting time) ([1]; compound 25 μM) | Activity in the Defined Fibrin Deposition Assay [1] | Classification as HERG-channel blocker (potency ranking of Roche et al.) (HERG channel [2]) | HERG inhibition Rb+ efflux (% Inhibition at 10 μM) (HERG channel [3]) | Max dose within toxicity category: Severe toxicity (one of the animals died within one hour) (C57BI/6 mice) | remaining at 0.5 h, 1 μM (in vitro) | Max dose within toxicity category: Some toxicity (ataxy or catalepsy, no deaths) (C57BI/6 mice) | level at 5 min (in vivo; ip) | level at 20 min (in vivo; ip) | level at 40 min (in vivo; ip) | level at 1 h (in vivo; ip) | level at 80 min (in vivo; ip) | level at 100 min (in vivo; ip) | level at 5 min (in vivo; iv) | level at 10 min (in vivo; iv) | level at 0.25 h (in vivo; iv) | level at 20 min (in vivo; iv) | level at 25 min (in vivo; iv) | level at 0.5 h (in vivo; iv) | also measured
1 | CC[C@@H](C)[C@@H](NC(=O)[C@@H](CS)NC(C)=O)C(=O)N[C@H](CCSC)C(=O)N[C@H](Cc1ccccc1)C(=O)N[C@H](Cc1c[nH]c2ccccc12)C(=O)N[C@H](Cc1ccc(O)cc1)C(=O)N[C@H](CC(=O)O)C(=O)N[C@H](CCC(=O)O)C(=O)N[C@H](Cc1ccc(O)cc1)C(=O)N[C@H](CCC(=O)O)C(N)=O [Peptide B03, Ac-cimfwydeye-NH2] (Ac-[dC][dI][dM][dF][dW][dY][dD][dE][dY][dE]-NH2) | 291 mU/ml | 325 mU/ml | possess activity | high potency | −2.1% | 15 mg/kg | – | – | – | – | – | – | – | – | – | – | – | – | – | – | –
2 | Ac-WDLYFEIVWE [Peptide A06] | 232 mU/ml | 168 mU/ml | possess activity | – | −6.4% | 25 mg/kg | 49% | 5 mg/kg | 6440 ng/mL | 7770 ng/mL | 547 ng/mL | 5800 ng/mL | 4060 ng/mL | 3020 ng/mL | 50000 ng/mL | 32600 ng/mL | 21000 ng/mL | 15600 ng/mL | 11300 ng/mL | 7790 ng/mL | –
3 | H-ERMEFDVWDLYFEIVW-NH2 [Peptide A09] | – | – | – | – | −1.6% | – | 23% | – | 34 ng/mL | 67 ng/mL | 60 ng/mL | 129 ng/mL | 74 ng/mL | 68 ng/mL | 350 ng/mL | 184 ng/mL | 109 ng/mL | 119 ng/mL | 64 ng/mL | 80 ng/mL | Max dose within toxicity category: No detected toxicity (C57BI/6 mice; i.p.): 15 mg/kg
4 | Ac-PMKFDVWDLYFEIVW-NH2 [Peptide A02] | – | – | – | – | −3.3% | – | 45% | – | 273 ng/mL | 315 ng/mL | 289 ng/mL | 612 ng/mL | 99 ng/mL | 176 ng/mL | 11600 ng/mL | 7260 ng/mL | 3180 ng/mL | 2740 ng/mL | 1440 ng/mL | 1310 ng/mL | –
5 | Ac-WDLYFEIVW-NH2 [Peptide A05] | – | 193 mU/ml | possess activity | low-potency | – | 15 mg/kg | – | 1.5 mg/kg | 119 ng/mL | 165 ng/mL | 185 ng/mL | 130 ng/mL | 49 ng/mL | 50 ng/mL | 2600 ng/mL | 2040 ng/mL | 173 ng/mL | 101 ng/mL | 23 ng/mL | – | FEIBA EU (from clotting time) ([1]; compound 10 μM): 119 mU/ml; FEIBA EU (from clotting time) ([1]; compound 50 μM): 219 mU/ml
6 | Ac-RMKFDVWDLYFEIVW-NH2 [Peptide A01] | – | 80 mU/ml | possess activity | low-potency | – | – | 30% | – | – | – | – | – | – | – | 673 ng/mL | 352 ng/mL | 454 ng/mL | 145 ng/mL | 282 ng/mL | 115 ng/mL | FEIBA EU (from clotting time) ([1]; compound 50 μM): 127 mU/ml; FEIBA EU (from clotting time) ([1]; compound 100 μM): 145 mU/ml
